Results on seven compounds are retold here after patent publication US8461328B2, “Tricyclic heterocyclic compounds, compositions and methods of use thereof” (Genentech, Inc., priority 2010, dated 2013).

Holding throughout (format): biochemical
For one test, the target named is T1, JAK3 (Homo sapiens, UniProt P52333).
T1 construct: made in house; host or cells: SF9 insect cells (baculovirus)
Description: JAK3 inhibition (Table 4). To be noted: read-out: JAK3 Ki.

A further test addresses T2, JAK1 (Homo sapiens, UniProt P23458).
T2 construct: made in house; host or cells: SF9 insect cells (baculovirus)
Description: JAK1 inhibition (Table 4). To be noted: read-out: JAK1 Ki.

The next test has as its target T3, TYK2 (Homo sapiens, UniProt P29597).
T3 construct: made in house; host or cells: SF9 insect cells (baculovirus)
T3 sequence (P29597 873-1187): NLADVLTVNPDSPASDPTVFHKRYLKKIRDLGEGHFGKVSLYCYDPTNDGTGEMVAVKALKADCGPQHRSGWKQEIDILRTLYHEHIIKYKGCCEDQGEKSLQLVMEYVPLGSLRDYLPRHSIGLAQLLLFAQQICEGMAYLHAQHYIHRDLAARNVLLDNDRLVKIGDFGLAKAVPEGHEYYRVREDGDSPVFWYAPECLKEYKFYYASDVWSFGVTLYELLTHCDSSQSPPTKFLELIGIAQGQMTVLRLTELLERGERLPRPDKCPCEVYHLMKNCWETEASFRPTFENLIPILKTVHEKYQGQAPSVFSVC
Description: TYK2 inhibition (Table 4).

For the next test, the target named is T4, JAK2 (Homo sapiens, UniProt O60674).
T4 construct: made in house; host or cells: SF9 insect cells (baculovirus)
Description: JAK2 inhibition (Table 4). To be noted: read-out: JAK2 Ki.

T1 sequence (P52333 783-1124): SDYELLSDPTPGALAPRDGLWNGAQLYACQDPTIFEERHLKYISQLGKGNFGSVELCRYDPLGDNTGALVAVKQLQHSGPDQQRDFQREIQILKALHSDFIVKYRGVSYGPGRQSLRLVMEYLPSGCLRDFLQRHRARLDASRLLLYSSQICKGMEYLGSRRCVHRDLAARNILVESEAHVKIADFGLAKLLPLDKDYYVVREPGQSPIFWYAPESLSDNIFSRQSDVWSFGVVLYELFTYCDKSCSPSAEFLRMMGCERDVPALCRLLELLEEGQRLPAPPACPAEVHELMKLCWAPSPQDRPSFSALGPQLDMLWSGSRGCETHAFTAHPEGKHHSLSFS
T4 sequence (O60674 812-1132): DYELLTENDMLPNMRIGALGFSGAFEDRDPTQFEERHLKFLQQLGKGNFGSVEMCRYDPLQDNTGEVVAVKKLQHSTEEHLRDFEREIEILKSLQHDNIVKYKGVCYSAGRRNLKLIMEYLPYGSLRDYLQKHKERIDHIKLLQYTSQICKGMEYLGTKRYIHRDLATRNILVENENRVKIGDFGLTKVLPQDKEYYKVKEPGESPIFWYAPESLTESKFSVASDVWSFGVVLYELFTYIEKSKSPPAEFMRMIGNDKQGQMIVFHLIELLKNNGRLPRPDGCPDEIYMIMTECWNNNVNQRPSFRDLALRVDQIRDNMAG
T2 sequence (P23458 852-1154): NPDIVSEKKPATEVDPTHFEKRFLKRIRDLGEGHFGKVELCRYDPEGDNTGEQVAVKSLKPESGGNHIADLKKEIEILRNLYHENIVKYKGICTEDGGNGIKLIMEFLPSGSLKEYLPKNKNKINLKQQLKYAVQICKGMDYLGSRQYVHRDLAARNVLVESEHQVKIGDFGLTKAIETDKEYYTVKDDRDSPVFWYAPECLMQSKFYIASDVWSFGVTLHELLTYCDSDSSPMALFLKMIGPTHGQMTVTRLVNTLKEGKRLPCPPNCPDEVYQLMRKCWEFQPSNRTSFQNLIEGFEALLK

One may read the Ki as a dissociation constant, usually derived from enzyme kinetics or from competition with a known ligand. As to `C[C@@H](O)c1nc2cnc3[nH]ccc3c2n1[C@@H]1COCCC1(F)F` [Example 1012, (R)-1-[1-((R)-4,4-Difluoro-tetrahydro-pyran-3-yl)-1,6-dihydro-1,3,5,6-tetraaza-as-indacen-2-yl]-ethanol], the Ki at JAK3 is 75.1 nM; at JAK1 it was 9.43 nM; on TYK2, 45.2 nM; at JAK2 it was 103 nM.

Consider `COCCN1CC[C@H](n2c([C@@H](C)O)nc3cnc4[nH]ccc4c32)C(F)(F)C1` [Example 1013, (R)-1-{1-[(S)-3,3-Difluoro-1-(2-methoxy-ethyl)-piperidin-4-yl]-1,6-dihydro-1,3,5,6-tetraaza-as-indacen-2-yl}-ethanol], for which the Ki came to 28.9 nM at JAK3, 2.15 nM on JAK1, 11.3 nM at TYK2 and 11.1 nM at JAK2.

With `COCCN1CC[C@@H](n2c([C@@H](C)O)nc3cnc4[nH]ccc4c32)C(F)(F)C1` [Example 1014, (R)-1-{1-[(R)-3,3-Difluoro-1-(2-methoxy-ethyl)-piperidin-4-yl]-1,6-dihydro-1,3,5,6-tetraaza-as-indacen-2-yl}-ethanol], the Ki on JAK3 is 4.65 nM; on JAK1, 2.53 nM; at TYK2, 45.5 nM; on JAK2, 18.6 nM.

Take “(1-Cyclohexyl-1,6-dihydro-1,2,3,5,6-tetraaza-as-indacen-2-yl)-methanol-d11 [Example 674]”: the Ki was found to be 10.5 nM on JAK3, 1.13 nM on JAK1, 1.87 nM at TYK2 and 7.11 nM on JAK2.

Take “(R)-1-{1-[1-(3,5-Dimethyl-1H-pyrazol-4-ylmethyl)-piperidin-4-yl]-1,6-dihydro-1,3,5,6-tetraaza-as-indacen-2-yl}-ethanol [Example 904]”: the Ki on JAK3 is 1040 nM; at JAK1, 211 nM; on TYK2, 2650 nM; on JAK2, 1340 nM.

In the case of “N-tert-Butyl-2-[1-(tetrahydro-pyran-3-yl)-1,6-dihydro-1,3,5,6-tetraaza-as-indacen-2-yl]-acetamide [Example 964]”, the Ki on JAK3 is 164 nM; at JAK1, 78.9 nM; at TYK2, 487 nM; on JAK2, 274 nM.

For the compound “[3-(6H-1,3,5,6-Tetraaza-as-indacen-1-yl)-cyclopentyl]-carbamic acid 2,2,2-trifluoro-ethyl ester [Example 733]”, the Ki at JAK3 came out at 5.88 nM; at JAK1, 0.77 nM; at TYK2, 37.8 nM; at JAK2 it was 4.83 nM.
